Laboratory results from publication PMC10221074, “Functional Profiling of the A-Family of Venom Peptides from the Wolf Spider Lycosa shansia” (Toxins, 2023).

Experiments:
[1] = tested on: G. mellonella larvae; experiment: Insecticidal activity by injection into larvae; type: in vivo, Galleria mellonella; settings: 50 ng peptide injected, 3 cohorts of 10 larvae, survival monitored for 5 days
Description: Insecticidal activity was determined using fourth and fifth instar G. mellonella larvae (L4/L5) obtained from Fauna Topics Zoobedarf Zucht und Handels GmbH (Marbach am Neckar, Germany). Because spider venom is injected via chelicerae, we opted for an injection-based assay to reflect the natural process of envenomation as described earlier. The peptides were dissolved in a 1:1 mixture of DMSO and water to a final concentration of 10 mmol/L. We injected 50 ng of each peptide into the pseudopodium using Omnican-F, 0.30 × 12 mm/G 30 × 1/2”, a 1 mL syringe adjusted to a WPI manual microsyringe injector setup. Injections with water, DMSO/water (1:1) and ethanol (90%) were used as controls, alongside untreated specimens. Insecticidal activity screenings were performed in cohorts of 10 larvae with 3 replicates (30 specimens per treatment or control). […] Survival was monitored every 24 h for 5 days. Mortality was calculated based on the ratio of dead to injected specimens.

[2] = tested on: Escherichia coli BL21(DE3); experiment: Antibacterial growth assay (OD600); settings: OD600, medium = 100, MH II broth, 37 °C, peptide 200 µM mixed 50 µL + 50 µL with bacteria, Figure 7: 48 h; for Bacterial growth relative to medium, E. coli, replicate 1: replicate column 1; for Bacterial growth relative to medium, E. coli, replicate 2: replicate column 2; for Bacterial growth relative to medium, E. coli, replicate 3: replicate column 3
[3] = tested on: Listeria monocytogenes DSM 20600; experiment: Antibacterial growth assay (OD600); settings: OD600, medium = 100, MH II broth, 37 °C, peptide 200 µM mixed 50 µL + 50 µL with bacteria, Figure 7: 48 h; for Bacterial growth relative to medium, L. monocytogenes, replicate 1: replicate column 1; for Bacterial growth relative to medium, L. monocytogenes, replicate 2: replicate column 2; for Bacterial growth relative to medium, L. monocytogenes, replicate 3: replicate column 3
[4] = tested on: panel of seven bacterial strains; experiment: Antibacterial growth assay (OD600), statements on the whole panel; type: cell-based; settings: growth after 48 h
[5] = tested on: Staphylococcus epidermidis DSM 28319; experiment: Antibacterial growth assay (OD600); settings: for Bacterial growth relative to medium, S. epidermidis, replicate 1 / Bacterial growth relative to medium, S. epidermidis, replicate 2 / Bacterial growth relative to medium, S. epidermidis, replicate 3: OD600, medium = 100, MH II broth, 37 °C, peptide 200 µM mixed 50 µL + 50 µL with bacteria, Figure 7: 48 h; for Bacterial growth relative to medium, S. epidermidis, replicate 1: replicate column 1; for Bacterial growth relative to medium, S. epidermidis, replicate 2: replicate column 2; for Bacterial growth relative to medium, S. epidermidis, replicate 3: replicate column 3; for Antibacterial activity (in words): S. epidermidis DSM 28319, growth after 48 h
Description: (§1) Cryo-conserved cultures of selected bacterial strains (Table 4) were transferred to Tryptic Soy Agar (TSA) plates (Carl Roth) with a sterile inoculation loop, sealed with Parafilm (BEMIS, Neenah, WI, USA), and incubated for 1–2 days at 37 °C depending on growth. Single colonies were picked and transferred into 2–3 mL of the Mueller–Hinton II (MH II) broth (BD, Heidelberg, Germany). The bacteria were cultivated overnight, subcultured on fresh medium and grown for 3–4 h before testing at 37 °C, with shaking at 180 rpm. We measured the optical density at 600 nm (OD600) of 1 mL of the bacterial suspensions in polystyrene cuvettes (SARSTED, Nümbrecht, Germany) using an Ultrospec 10 spectrophotometer (Biochrome, Cambridge, UK). We then diluted them with the MH II medium to the preferred OD600 (Table 2). The peptides were dissolved in DMSO to generate 10 mmol/L stocks and diluted with the MH II medium to 200 µM before the assay. We used 10 µg/mL (~40 µg/mL for S. epidermidis) gentamicin and colistin (Sigma-Aldrich, Taufkirchen, Germany), DMSO and the medium only as controls. The bacteria were transferred to 96-multiwell plates with a final volume of 100 µL per well (50 µL bacterial suspension, and 50 µL test peptide). The OD600 was measured at 0, 24 and 48 h using a BioTek Eon microplate reader followed by analysis with Gen5 v2.09.

[6] = tested on: A/Hamburg/05/2009 (H1N1); type: cell-based, influenza virus
[7] = tested on: Pseudomonas aeruginosa DSM 50071; experiment: Antibacterial growth assay (OD600); settings: OD600, medium = 100, MH II broth, 37 °C, peptide 200 µM mixed 50 µL + 50 µL with bacteria, Figure 7: 48 h; for Bacterial growth relative to medium, P. aeruginosa (50071), replicate 1: replicate column 1; for Bacterial growth relative to medium, P. aeruginosa (50071), replicate 2: replicate column 2; for Bacterial growth relative to medium, P. aeruginosa (50071), replicate 3: replicate column 3
[8] = tested on: Pseudomonas aeruginosa DSM 1117; experiment: Antibacterial growth assay (OD600); settings: OD600, medium = 100, MH II broth, 37 °C, peptide 200 µM mixed 50 µL + 50 µL with bacteria, Figure 7: 48 h; for Bacterial growth relative to medium, P. aeruginosa (1117), replicate 1: replicate column 1; for Bacterial growth relative to medium, P. aeruginosa (1117), replicate 2: replicate column 2; for Bacterial growth relative to medium, P. aeruginosa (1117), replicate 3: replicate column 3
Description: as §1

[9] = tested on: B/Malaysia/2506/2004 (B-Mal); type: cell-based, influenza virus
[10] = tested on: Staphylococcus aureus DSM 2569; experiment: Antibacterial growth assay (OD600); settings: for Bacterial growth relative to medium, S. aureus, replicate 1 / Bacterial growth relative to medium, S. aureus, replicate 2 / Bacterial growth relative to medium, S. aureus, replicate 3: OD600, medium = 100, MH II broth, 37 °C, peptide 200 µM mixed 50 µL + 50 µL with bacteria, Figure 7: 48 h; for Bacterial growth relative to medium, S. aureus, replicate 1: replicate column 1; for Bacterial growth relative to medium, S. aureus, replicate 2: replicate column 2; for Bacterial growth relative to medium, S. aureus, replicate 3: replicate column 3; for Antibacterial activity (in words): S. aureus DSM 2569, growth after 48 h
[11] = tested on: A/Hessen/1/2003 (H3N2); type: cell-based, influenza virus; settings: for Viability of infected cells relative to aprotinin, Replicate 4: replicate 4 (additional internal control)
[12] = tested on: Micrococcus luteus DSM 20030; experiment: Antibacterial growth assay (OD600); settings: for Antibacterial activity (in words): M. luteus DSM 20030, growth after 48 h; for Bacterial growth relative to medium, M. luteus, replicate 1 / Bacterial growth relative to medium, M. luteus, replicate 2 / Bacterial growth relative to medium, M. luteus, replicate 3: OD600, medium = 100, MH II broth, 37 °C, peptide 200 µM mixed 50 µL + 50 µL with bacteria, Figure 7: 48 h; for Bacterial growth relative to medium, M. luteus, replicate 1: replicate column 1; for Bacterial growth relative to medium, M. luteus, replicate 2: replicate column 2; for Bacterial growth relative to medium, M. luteus, replicate 3: replicate column 3
Description: as §1

Sequence	Insecticidal effect on larvae (in words) [1]	Bacterial growth relative to medium, E. coli, replicate 1 [2]	Bacterial growth relative to medium, E. coli, replicate 2 [2]	Bacterial growth relative to medium, E. coli, replicate 3 [2]	Bacterial growth relative to medium, L. monocytogenes, replicate 1 [3]	Bacterial growth relative to medium, L. monocytogenes, replicate 2 [3]	Bacterial growth relative to medium, L. monocytogenes, replicate 3 [3]	Bacterial growth relative to medium, S. epidermidis, replicate 1 [5]	Bacterial growth relative to medium, S. epidermidis, replicate 2 [5]	Bacterial growth relative to medium, S. epidermidis, replicate 3 [5]	Viability of infected cells relative to aprotinin, Replicate 1 [6]	Viability of infected cells relative to aprotinin, Replicate 2 [6]	Viability of infected cells relative to aprotinin, Replicate 3 [6]	Bacterial growth relative to medium, P. aeruginosa (50071), replicate 1 [7]	Bacterial growth relative to medium, P. aeruginosa (50071), replicate 2 [7]	Bacterial growth relative to medium, P. aeruginosa (50071), replicate 3 [7]	Bacterial growth relative to medium, P. aeruginosa (1117), replicate 1 [8]	Bacterial growth relative to medium, P. aeruginosa (1117), replicate 2 [8]	Bacterial growth relative to medium, P. aeruginosa (1117), replicate 3 [8]	Viability of infected cells relative to aprotinin, Replicate 1 [9]	also measured
DVVKSKVGQT [LS-AMP-A20]	Individual dead insects	95.2629	75.2606	50.6769	113.144	85.2342	40.8896	65.0524	56.0414	87.4721	0.03404	0.03606	0.06978	100.814	110.766	86.151	78.7161	66.133	53.5452	0.07308	Antibacterial activity over the panel (in words) [4]: marginal effects against several bacteria; Viability of infected cells relative to aprotinin, Replicate 2 [9]: 0.07936; Viability of infected cells relative to aprotinin, Replicate 3 [9]: 0.06088; Bacterial growth relative to medium, S. aureus, replicate 1 [10]: 65.5327; Bacterial growth relative to medium, S. aureus, replicate 2 [10]: 71.5501; Bacterial growth relative to medium, S. aureus, replicate 3 [10]: 85.4097; Viability of infected cells relative to aprotinin, Replicate 1 [11]: 0.06093; Viability of infected cells relative to aprotinin, Replicate 2 [11]: 0.1556; Viability of infected cells relative to aprotinin, Replicate 3 [11]: 0.1529; Viability of infected cells relative to aprotinin, Replicate 4 [11]: 0.1478; Antibacterial activity (in words) [12]: strongest effect; Bacterial growth relative to medium, M. luteus, replicate 1 [12]: 84.9437; Bacterial growth relative to medium, M. luteus, replicate 2 [12]: 89.1892; Bacterial growth relative to medium, M. luteus, replicate 3 [12]: 58.8713
GSLLGLLDVVKSKVGQTGLL [LS-AMP-A19]	Individual dead insects	95.9562	82.2712	94.9872	151.42	105.659	60.4017	91.5432	106.521	92.445	0.03506	0.03971	0.04612	103.493	107.483	85.194	72.8823	76.8187	66.0758	0.02926	Antibacterial activity over the panel (in words) [4]: largely inactive; Viability of infected cells relative to aprotinin, Replicate 2 [9]: 0.02406; Viability of infected cells relative to aprotinin, Replicate 3 [9]: 0.04584; Bacterial growth relative to medium, S. aureus, replicate 1 [10]: 70.8601; Bacterial growth relative to medium, S. aureus, replicate 2 [10]: 71.4846; Bacterial growth relative to medium, S. aureus, replicate 3 [10]: 83.7635; Viability of infected cells relative to aprotinin, Replicate 1 [11]: 0.07115; Viability of infected cells relative to aprotinin, Replicate 2 [11]: 0.1267; Viability of infected cells relative to aprotinin, Replicate 3 [11]: 0.119; Antibacterial activity (in words) [12]: strongly suppressed the growth; Bacterial growth relative to medium, M. luteus, replicate 1 [12]: 38.8889; Bacterial growth relative to medium, M. luteus, replicate 2 [12]: 63.626; Bacterial growth relative to medium, M. luteus, replicate 3 [12]: 16.4993
SLLGLLDVVKSKIGQT [LS-AMP-A15]	Individual dead insects	103.062	89.9768	48.0425	129.232	92.1308	85.5096	84.6766	83.7361	92.3812	0.04491	0.03692	0.03514	101.444	115.913	84.6093	80.9004	77.0275	69.3765	0.05034	Antibacterial activity (in words) [5]: limited activity; Viability of infected cells relative to aprotinin, Replicate 2 [9]: 0.05082; Viability of infected cells relative to aprotinin, Replicate 3 [9]: 0.05878; Bacterial growth relative to medium, S. aureus, replicate 1 [10]: 62.2914; Bacterial growth relative to medium, S. aureus, replicate 2 [10]: 63.5709; Bacterial growth relative to medium, S. aureus, replicate 3 [10]: 94.1265; Antibacterial activity (in words) [10]: limited activity; Viability of infected cells relative to aprotinin, Replicate 1 [11]: 0.1635; Viability of infected cells relative to aprotinin, Replicate 2 [11]: 0.1644; Viability of infected cells relative to aprotinin, Replicate 3 [11]: 0.1569; Viability of infected cells relative to aprotinin, Replicate 4 [11]: 0.1576; Bacterial growth relative to medium, M. luteus, replicate 1 [12]: 87.1981; Bacterial growth relative to medium, M. luteus, replicate 2 [12]: 100.338; Bacterial growth relative to medium, M. luteus, replicate 3 [12]: 54.7585
SLLGLLDVVKSKIGQTGLL [LS-AMP-A13]	Individual dead insects	109.532	109.096	112.001	131.861	134.66	121.808	109.035	130.725	108.734	0.06606	0.03634	0.07331	102.39	115.883	93.6736	81.1135	69.8921	76.1614	0.08268	Antibacterial activity (in words) [5]: limited activity; Viability of infected cells relative to aprotinin, Replicate 2 [9]: 0.06182; Viability of infected cells relative to aprotinin, Replicate 3 [9]: 0.0661; Bacterial growth relative to medium, S. aureus, replicate 1 [10]: 71.9833; Bacterial growth relative to medium, S. aureus, replicate 2 [10]: 81.2949; Bacterial growth relative to medium, S. aureus, replicate 3 [10]: 106.322; Antibacterial activity (in words) [10]: limited activity; Viability of infected cells relative to aprotinin, Replicate 1 [11]: 0.1762; Viability of infected cells relative to aprotinin, Replicate 2 [11]: 0.09602; Viability of infected cells relative to aprotinin, Replicate 3 [11]: 0.1319; Bacterial growth relative to medium, M. luteus, replicate 1 [12]: 108.132; Bacterial growth relative to medium, M. luteus, replicate 2 [12]: 162.387; Bacterial growth relative to medium, M. luteus, replicate 3 [12]: 79.7227
